Assay results taken from ChEMBL document CHEMBL1139018, “Acetylenic TACE inhibitors. Part 3: Thiomorpholine sulfonamide hydroxamates” (Bioorg Med Chem Lett, 2006).

What was measured:
Collagenase 3 = Collagenase 3 (Homo sapiens, UniProt P45452); assay: Inhibition of MMP13
[1] = molecular target: T1, Disintegrin and metalloproteinase domain-containing protein 17 (Homo sapiens, UniProt P78536); assay: Inhibition of LPS-stimulated TNF production in THP cells at 3 uM; assay type: functional, cell-based
T1 sequence (P78536 whole entry, the tested form may be a part): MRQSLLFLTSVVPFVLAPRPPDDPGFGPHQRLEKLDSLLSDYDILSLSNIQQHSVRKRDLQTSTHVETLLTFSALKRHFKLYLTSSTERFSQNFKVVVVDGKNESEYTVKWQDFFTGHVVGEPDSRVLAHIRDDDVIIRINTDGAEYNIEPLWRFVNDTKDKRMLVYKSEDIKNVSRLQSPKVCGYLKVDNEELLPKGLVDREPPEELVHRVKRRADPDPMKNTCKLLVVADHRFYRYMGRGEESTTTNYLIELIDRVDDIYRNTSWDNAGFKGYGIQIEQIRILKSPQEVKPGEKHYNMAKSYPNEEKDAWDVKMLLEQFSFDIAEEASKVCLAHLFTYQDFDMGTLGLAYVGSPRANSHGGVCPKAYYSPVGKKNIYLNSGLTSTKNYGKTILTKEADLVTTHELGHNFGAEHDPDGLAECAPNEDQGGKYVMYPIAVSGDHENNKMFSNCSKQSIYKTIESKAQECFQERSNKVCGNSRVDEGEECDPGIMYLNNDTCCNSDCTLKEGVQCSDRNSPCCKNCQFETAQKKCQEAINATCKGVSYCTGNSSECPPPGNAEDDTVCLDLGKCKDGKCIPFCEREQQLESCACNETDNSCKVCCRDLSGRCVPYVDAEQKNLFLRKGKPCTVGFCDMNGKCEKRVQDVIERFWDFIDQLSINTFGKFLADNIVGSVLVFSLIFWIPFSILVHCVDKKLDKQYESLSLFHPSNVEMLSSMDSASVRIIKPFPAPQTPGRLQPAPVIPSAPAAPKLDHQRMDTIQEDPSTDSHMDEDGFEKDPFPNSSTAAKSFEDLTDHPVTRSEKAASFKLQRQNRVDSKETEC

[2] = molecular target: T1, Disintegrin and metalloproteinase domain-containing protein 17; assay: Inhibition of LPS-stimulated TNF production in THP cells at 1 uM; assay type: functional, cell-based
Interstitial collagenase = molecular target: T2, Interstitial collagenase (Homo sapiens, UniProt P03956); assay: Inhibition of MMP1
T2 sequence (P03956 whole entry): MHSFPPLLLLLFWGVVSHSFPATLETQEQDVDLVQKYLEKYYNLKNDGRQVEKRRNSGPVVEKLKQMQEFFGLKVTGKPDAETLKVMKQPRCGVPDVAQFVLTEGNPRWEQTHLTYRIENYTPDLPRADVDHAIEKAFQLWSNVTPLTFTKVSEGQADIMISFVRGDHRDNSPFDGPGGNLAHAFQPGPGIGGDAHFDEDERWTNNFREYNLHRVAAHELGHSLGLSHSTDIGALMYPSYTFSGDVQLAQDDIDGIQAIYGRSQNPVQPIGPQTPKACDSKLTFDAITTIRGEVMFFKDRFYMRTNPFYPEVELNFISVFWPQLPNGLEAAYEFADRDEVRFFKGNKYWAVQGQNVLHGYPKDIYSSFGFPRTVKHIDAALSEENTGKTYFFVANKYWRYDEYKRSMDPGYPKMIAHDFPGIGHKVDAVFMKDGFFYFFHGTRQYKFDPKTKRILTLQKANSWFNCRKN

[3] = molecular target: T1, Disintegrin and metalloproteinase domain-containing protein 17; assay: Inhibition of TACE
Mus musculus [4] = assay: Inhibition of LPS-stimulated TNFalpha production in mouse at 50 mg/kg, po; assay type: functional
[5] = Bioavailability in mouse at 10 mg/kg; assay type: ADME, organism-based; details: in vivo
[6] = Bioavailability in rat at 10 mg/kg; assay type: ADME, organism-based; details: in vivo
[7] = Bioavailability in dog at 10 mg/kg; assay type: ADME, organism-based, Canis lupus familiaris; details: in vivo
[8] = Permeability across Caco-2 cell membrane; assay type: ADME, cell-based; details: human
Mus musculus [9] = species: Mus musculus; assay: Inhibition of LPS-stimulated TNFalpha production in mouse; assay type: functional

Compound	IC50 (Collagenase 3)	inhibition [1]	inhibition [2]	IC50 (Interstitial collagenase)	IC50 [3]	inhibition in vivo at 50 mg/kg (Mus musculus [4])	bioavailability [5]	bioavailability [6]	bioavailability [7]	IC50 [2]	Papp [8]	ED50 (Mus musculus [9])
CC1(C)SCCN(S(=O)(=O)c2ccc(OCC#CCCCCN)cc2)[C@H]1C(=O)NO	7 nM	37%	13%	–	–	–	–	–	–	–	–	–
CC#CCOc1ccc(S(=O)(=O)N2C[C@H](CC(=O)O)SC(C)(C)[C@@H]2C(=O)NO)cc1	7 nM	89%	73%	–	–	–	–	–	–	–	–	–
CC1(C)SCCN(S(=O)(=O)c2ccc(OCC#CCN)cc2)[C@H]1C(=O)NO	8 nM	40%	10%	97 nM	–	–	–	–	–	–	–	–
C#CCOc1ccc(S(=O)(=O)N2CCSC(C)(C)[C@@H]2C(=O)NO)cc1	1 nM	91%	76%	1 nM	–	–	–	–	–	–	–	–
C#CC#CCOc1ccc(S(=O)(=O)N2CCSC(C)(C)[C@@H]2C(=O)NO)cc1	–	88%	62%	6 nM	–	–	–	–	–	–	–	–
CCCCC#CCOc1ccc(S(=O)(=O)N2CCSC(C)(C)[C@@H]2C(=O)NO)cc1	7 nM	82%	48%	29 nM	23 nM	–	–	–	–	–	–	–
CC1(C)SCCN(S(=O)(=O)c2ccc(OCC#CCCCCO)cc2)[C@H]1C(=O)NO	–	77%	52%	–	–	–	–	–	–	–	–	–
CC(C)(C)OC(=O)NCCCCC#CCOc1ccc(S(=O)(=O)N2CCSC(C)(C)[C@@H]2C(=O)NO)cc1	4 nM	70%	40%	–	–	–	–	–	–	–	–	–
CC(C)(C)OC(=O)NCC#CCOc1ccc(S(=O)(=O)N2CCSC(C)(C)[C@@H]2C(=O)NO)cc1	4 nM	79%	53%	26 nM	74 nM	–	–	–	–	–	–	–
C#CCCOc1ccc(S(=O)(=O)N2CCSC(C)(C)[C@@H]2C(=O)NO)cc1	1 nM	64%	36%	2 nM	32 nM	–	–	–	–	–	–	–
CC1(C)SCCN(S(=O)(=O)c2ccc(OCC#CCCN)cc2)[C@H]1C(=O)NO	27 nM	4%	0%	1050 nM	138 nM	–	–	–	–	–	–	–
CC#CCOc1ccc(S(=O)(=O)N2C[C@H](CN)SC(C)(C)[C@@H]2C(=O)NO)cc1	–	94%	78%	–	–	≥ 95%	–	–	–	–	–	–
C#CCCCOc1ccc(S(=O)(=O)N2CCSC(C)(C)[C@@H]2C(=O)NO)cc1	8 nM	38%	16%	11 nM	40 nM	–	–	–	–	–	–	–
C/C=C/COc1ccc(S(=O)(=O)N2CCSC(C)(C)[C@@H]2C(=O)NO)cc1	2 nM	80%	50%	7 nM	35 nM	–	–	–	–	–	–	–
CC#CCOc1ccc(S(=O)(=O)N2CCSC(C)(C)[C@@H]2C(=O)NO)cc1	–	94%	87%	–	–	–	71%	5%	0%	–	–	–
CC1(C)SCCN(S(=O)(=O)c2ccc(OCC#CCCCN)cc2)[C@H]1C(=O)NO	9 nM	22%	0%	–	–	–	–	–	–	–	–	–
CC#CCOc1ccc(S(=O)(=O)N2C[C@H](CCN(CC)CC)SC(C)(C)[C@@H]2C(=O)NO)cc1	48 nM	87%	67%	33 nM	143 nM	≥ 95%	–	–	–	–	–	–
CC1(C)SCCN(S(=O)(=O)c2ccc(OCC#CCO)cc2)[C@H]1C(=O)NO	8 nM	95%	89%	–	–	≥ 95%	24%	8%	36%	140 nM	2.2 ×10⁻⁶ cm/s	5 mg/kg
CC1(C)SCCN(S(=O)(=O)c2ccc(OCC#CCCCO)cc2)[C@H]1C(=O)NO	86 nM	51%	19%	159 nM	40 nM	–	–	–	–	–	–	–
CC#CCOc1ccc(S(=O)(=O)N2C[C@H](CCO)SC(C)(C)[C@@H]2C(=O)NO)cc1	23 nM	90%	74%	21 nM	15 nM	≥ 95%	–	–	–	–	–	–
CC(C)(C)OC(=O)NCCC#CCOc1ccc(S(=O)(=O)N2CCSC(C)(C)[C@@H]2C(=O)NO)cc1	7 nM	37%	14%	300 nM	112 nM	–	–	–	–	–	–	–
CC(C)(C)OC(=O)NCCCC#CCOc1ccc(S(=O)(=O)N2CCSC(C)(C)[C@@H]2C(=O)NO)cc1	2 nM	27%	5%	–	–	–	–	–	–	–	–	–
CC#CCOc1ccc(S(=O)(=O)N2C[C@H](CNS(C)(=O)=O)SC(C)(C)[C@@H]2C(=O)NO)cc1	14 nM	91%	81%	19 nM	11 nM	–	–	–	–	–	–	–
CC#CCOc1ccc(S(=O)(=O)N2C[C@H](CC(N)=O)SC(C)(C)[C@@H]2C(=O)NO)cc1	–	91%	76%	–	–	–	–	–	–	–	–	–
CC1(C)SCCN(S(=O)(=O)c2ccc(OCC#CCCO)cc2)[C@H]1C(=O)NO	14 nM	57%	25%	35 nM	62 nM	–	–	–	–	–	–	–
CCCCOc1ccc(S(=O)(=O)N2CCSC(C)(C)[C@@H]2C(=O)NO)cc1	9 nM	38%	11%	7 nM	42 nM	–	–	–	–	–	–	–
